Measurements from US8431704B2, “Quinoline or isoquinoline substituted P2X7 antagonists” (Janssen Pharmaceutica NV, priority 2008, dated 2013).

Biological target: T1, hP2X7 (Homo sapiens, UniProt Q99572)
T1 construct: expressed in transfected cells; host or cells: 1321N1 astrocytoma cells
T1 sequence (Q99572 1-595): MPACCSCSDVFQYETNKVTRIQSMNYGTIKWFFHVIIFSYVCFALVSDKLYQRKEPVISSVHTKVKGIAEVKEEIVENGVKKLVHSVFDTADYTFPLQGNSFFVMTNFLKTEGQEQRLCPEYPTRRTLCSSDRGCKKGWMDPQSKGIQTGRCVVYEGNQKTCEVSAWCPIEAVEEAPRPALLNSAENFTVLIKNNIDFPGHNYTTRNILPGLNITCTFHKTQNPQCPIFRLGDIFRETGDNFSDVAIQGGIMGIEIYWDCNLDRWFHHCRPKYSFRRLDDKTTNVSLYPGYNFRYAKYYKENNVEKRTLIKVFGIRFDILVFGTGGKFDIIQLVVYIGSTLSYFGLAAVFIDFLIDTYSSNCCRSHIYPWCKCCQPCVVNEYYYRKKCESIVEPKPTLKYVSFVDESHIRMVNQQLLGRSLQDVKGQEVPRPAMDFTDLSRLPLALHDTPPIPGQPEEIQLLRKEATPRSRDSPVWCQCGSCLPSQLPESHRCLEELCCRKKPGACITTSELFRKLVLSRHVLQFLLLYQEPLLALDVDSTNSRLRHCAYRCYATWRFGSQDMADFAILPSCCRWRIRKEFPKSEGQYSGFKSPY
Experiment: P2X7 antagonism: ligand-induced Ca2+ flux in 1321N1 astrocytoma cells overexpressing hP2X7
Format: cell-based
Settings: pIC50 = -log(IC50), read-out: hP2RX7pIC50 (mean pIC50 values) (converted)
Procedure: Extracellular binding of ATP to P2X7 that is expressed in the cell-membrane opens the ligand gated cation channel and allows Ca^2+ entry into the cell. This ligand-induced Ca^2+ flux was measured in 1321N1 astrocytoma cells overexpressing hP2X7 for the compounds of the present invention.
The calcium assay kit used (Molecular Devices, R8090), provides a Ca^2+ sensitive dye together with a quenching dye. However, no specifications are given by the manufacturer. The kit most likely consists of a membrane permeable acetoxymethyl (AM) ester of a fluorescent Ca^2+ indicator, such as fluo-4 or fluo-3. Upon cellular uptake, the AM esters get cleaved by esterases, liberating the Ca^2+-sensitive dye which can then bind calcium. The dyes have an absorption spectrum compatible with excitation at 488 nm by argon laser sources and a large fluorescence intensity increase in response to Ca^2+ binding without an accompanying spectral shift. Emission wavelength is in the range of 510-560 nm.
The fluorescence, and thus the changes in intracellular [Ca^2+] in the 1321N1 cells was monitored in time before and after addition of the agonist. The effect of the antagonist was measured as % control and as IC50.

Row | Compound | IC50 [µM]
1 | O=C(NCC(c1ccc(C(F)(F)F)nc1)N1CCC(F)(F)CC1)c1cccc2ncccc12 (single isomer, unassigned) [Compound 10] | 0.0437
2 | O=C(NCC(c1ccc(C(F)(F)F)nc1)N1CCC(F)(F)CC1)c1cccc2ncccc12 (single isomer, unassigned) [Compound 11] | 0.0525
3 | O=C(NCC(c1cnc(C(F)(F)F)nc1)N1CCC(F)(F)CC1)c1cccc2ncccc12 (single isomer, unassigned) [Compound 47] | 0.038
4 | O=C(NCC(c1ccc(C(F)(F)F)nc1)N1CCC(F)(F)CC1)c1cccc2ncccc12 (stereo not drawn) [Compound 1] | 0.0589
5 | O=C(NCC(c1ccc(Br)nc1)N1CCC(F)(F)CC1)c1cccc2ncccc12 (stereo not drawn) [Compound 2] | 0.0214
6 | O=C(NCC(c1cccnc1Cl)N1CCC(F)(F)CC1)c1cccc2ncccc12 (stereo not drawn) [Compound 3] | 3.63
7 | COc1cc(C(=O)NCC(c2ccc(C(F)(F)F)nc2)N2CCC(F)(F)CC2)nc2ccccc12 (stereo not drawn) [Compound 12] | 3.24
8 | O=C(NCC(c1ccc(C(F)(F)F)nc1)N1CCC(F)(F)CC1)c1ccc2ccccc2n1 (stereo not drawn) [Compound 14] | 0.178
9 | O=C(NCC(c1ccc(C(F)(F)F)nc1)N1CCC(F)(F)CC1)c1cccc2cnccc12 (stereo not drawn) [Compound 16] | 0.224
10 | CCCc1cc(C(=O)NCC(c2ccc(C(F)(F)F)nc2)N2CCC(F)(F)CC2)c2ccccc2n1 (stereo not drawn) [Compound 18] | 0.055
11 | CCc1cc2cc(C(=O)NCC(c3ccc(C(F)(F)F)nc3)N3CCC(F)(F)CC3)ccc2nc1C (stereo not drawn) [Compound 24] | 5.25
12 | O=C(NCC(c1ccccn1)N1CCC(F)(F)CC1)c1cccc2ncccc12 (stereo not drawn) [Compound 25] | > 10
13 | O=C(NCC(c1ccc(C(F)(F)F)nc1)N1CCC(c2ccccc2)CC1)c1cccc2ncccc12 (stereo not drawn) [Compound 27] | > 10
14 | O=C(NCC(c1cnc(C(F)(F)F)nc1)N1CCC(F)(F)CC1)c1cccc2nc(NCCCO)ccc12 (stereo not drawn) [Compound 40] | 0.0347
15 | O=C(NCC(c1cnc(C(F)(F)F)nc1)N1CCCC(F)(F)C1)c1cccc2ncccc12 (stereo not drawn) [Compound 66] | 0.0182
16 | CC1CCCCN1C(CNC(=O)c1cccc2ncccc12)c1cnc(C(F)(F)F)nc1 (stereo not drawn) [Compound 73] | 0.0501

More lines, now with the values ahead:

Row | IC50 [µM] | Compound
17 | 0.0661 | O=C(NC[C@H](c1cnc(C(F)(F)F)nc1)N1CCOCC1)c1cccc2nc(NC3CC3)ccc12 (single isomer, unassigned) [Compound 174]
18 | 0.107 | O=C(NCC(c1ccc(C(F)(F)F)nc1)N1CCOCC1)c1cccc2ncccc12 (stereo not drawn) [Compound 31]
19 | 0.0457 | COc1ccc2c(C(=O)NCC(c3cnc(C(F)(F)F)nc3)N3CCC(F)(F)CC3)cccc2n1 (stereo not drawn) [Compound 41]
20 | 0.038 | O=C(NCC(c1cnc(C(F)(F)F)nc1)N1CCC(F)(F)CC1)c1cccc2nc(NCC3CC3)ccc12 (stereo not drawn) [Compound 42]
21 | 0.955 | O=C(NCC(c1cnc(C(F)(F)F)nc1)N1CCCC1)c1cccc2ncccc12 (stereo not drawn) [Compound 45]
22 | 0.0191 | O=C(NCC(c1cnc(C(F)(F)F)nc1)N1CCCCCC1)c1cccc2ncccc12 (stereo not drawn) [Compound 52]
23 | 0.049 | O=C(NCC(c1cnc(C(F)(F)F)nc1)N1CCC(F)(F)CC1)c1cccc2nc(N3CCC(O)C3)ccc12 (stereo not drawn) [Compound 56]
24 | 0.0309 | O=C(NCC(c1cnc(C(F)(F)F)nc1)N1CCCC(F)C1)c1cccc2ncccc12 (stereo not drawn) [Compound 71]
25 | 0.302 | CC1CN(C(CNC(=O)c2cccc3ncccc23)c2cnc(C(F)(F)F)nc2)CCO1 (stereo not drawn) [Compound 72]
26 | 0.0447 | O=C(NCC(c1cnc(C(F)(F)F)nc1)N1CCCOCC1)c1cccc2nc(N3CCOCC3)ccc12 (stereo not drawn) [Compound 87]
27 | 0.0851 | O=C(NCC(c1cnc(C(F)(F)F)nc1)N1CCCOCC1)c1cccc2nc(NCCO)ccc12 (stereo not drawn) [Compound 89]
28 | 0.0871 | O=C(NCC(c1cnc(C(F)(F)F)nc1)N1CCCOCC1)c1cccc2nc(NCCCO)ccc12 (stereo not drawn) [Compound 90]
29 | 0.0813 | O=C(NCC(c1cnc(C(F)(F)F)nc1)N1CCCOCC1)c1cccc2nc(NCC3CCOCC3)ccc12 (stereo not drawn) [Compound 94]
30 | 0.0447 | O=C(NCC(c1cnc(C(F)(F)F)nc1)N1CCCOCC1)c1cccc2nc(NC3CC3)ccc12 (stereo not drawn) [Compound 95]
